Data on 2 compounds can be found in ChEMBL document CHEMBL1150898, “Synthesis and dopamine receptor selectivity of the benzyltetrahydroisoquinoline, (R)-(+)-nor-roefractine” (J Nat Prod, 1998).

One assay deals with D(2) dopamine receptor (Rattus norvegicus, UniProt P61169). The assay can be described thus: Displacement of [3H]raclopride from rat striatal dopamine D2 receptor.
Another assay deals with D(1A) dopamine receptor (Rattus norvegicus, UniProt P18901). The assay can be described thus: Displacement of [3H]SCH-23390 from rat striatal dopamine D1 receptor. On the technique in general: Loss of bound radioactivity is the signal in a displacement assay; it reports binding, not function.
The species entered for another assay is Rattus norvegicus. Put plainly: Selectivity for rat striatal dopamine D2 receptor over rat striatal dopamine D1 receptor.

Chain of D(1A) dopamine receptor (P18901 whole entry): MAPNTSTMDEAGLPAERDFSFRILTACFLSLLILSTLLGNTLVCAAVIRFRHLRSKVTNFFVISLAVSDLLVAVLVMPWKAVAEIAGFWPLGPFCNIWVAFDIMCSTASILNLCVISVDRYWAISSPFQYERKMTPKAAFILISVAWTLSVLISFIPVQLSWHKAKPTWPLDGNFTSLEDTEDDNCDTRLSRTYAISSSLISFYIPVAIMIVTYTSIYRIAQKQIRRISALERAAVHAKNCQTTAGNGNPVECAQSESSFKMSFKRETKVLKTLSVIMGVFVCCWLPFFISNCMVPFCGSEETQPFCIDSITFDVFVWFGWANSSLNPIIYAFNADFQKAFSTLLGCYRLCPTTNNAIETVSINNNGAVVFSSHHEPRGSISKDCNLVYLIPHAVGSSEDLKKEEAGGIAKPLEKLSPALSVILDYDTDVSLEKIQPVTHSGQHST
Chain of D(2) dopamine receptor (P61169 whole entry): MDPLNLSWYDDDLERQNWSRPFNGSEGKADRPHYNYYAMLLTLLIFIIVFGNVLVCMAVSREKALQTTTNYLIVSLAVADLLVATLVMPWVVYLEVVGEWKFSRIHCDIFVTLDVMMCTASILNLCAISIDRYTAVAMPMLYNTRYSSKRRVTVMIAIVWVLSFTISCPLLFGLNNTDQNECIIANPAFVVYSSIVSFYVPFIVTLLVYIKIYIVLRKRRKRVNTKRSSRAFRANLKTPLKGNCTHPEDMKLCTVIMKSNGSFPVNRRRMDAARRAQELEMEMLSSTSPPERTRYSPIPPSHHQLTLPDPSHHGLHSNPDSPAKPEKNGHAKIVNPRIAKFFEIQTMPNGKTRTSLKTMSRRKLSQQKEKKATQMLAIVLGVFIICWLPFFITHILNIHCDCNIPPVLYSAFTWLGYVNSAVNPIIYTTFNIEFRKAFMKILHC

By IC50 is commonly meant the concentration that gives 50% inhibition. Read a low IC50 as inhibition by little substance. With `COc1cc2c(cc1O)[C@@H](Cc1ccc(O)cc1)NCC2`, the IC50 on D(2) dopamine receptor was 130 nM; on D(1A) dopamine receptor it was 240 nM.
`COc1ccc(C[C@H]2NCCc3cc(O)c(OC)cc32)cc1` [NOR-ROEFRACTINE]: the IC50 on D(2) dopamine receptor stood at 5000 nM; at D(1A) dopamine receptor, 32900 nM. In the assay filed under Rattus norvegicus, the Selectivity ratio was determined as 6.
